From paper PMC2705520, “Inactivation and Unfolding of the Hyperthermophilic Inorganic Pyrophosphatase from Thermus thermophilus by Sodium Dodecyl Sulfate” (2009) come the findings set out here.

Where a name gives a salt, the structure may show the parent alone.

In data set [1] the target is T1, Inorganic pyrophosphatase (T-PPase) (Thermus thermophilus, UniProt Q72H95).
T1 construct: gene ppa
T1 sequence (Q72H95 1-175): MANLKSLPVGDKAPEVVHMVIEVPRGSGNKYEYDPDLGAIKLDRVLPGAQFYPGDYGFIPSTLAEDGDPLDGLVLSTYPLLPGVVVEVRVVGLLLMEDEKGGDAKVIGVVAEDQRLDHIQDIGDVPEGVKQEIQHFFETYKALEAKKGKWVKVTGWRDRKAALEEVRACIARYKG
Kind of data set: PPase activity assay (phosphomolybdate); Lineweaver-Burk and secondary replots, mixed type reversible inhibition. The format is biochemical. The source says:
PPase activity assay (phosphomolybdate); Lineweaver-Burk and secondary replots, mixed type reversible inhibition on Inorganic pyrophosphatase (T-PPase) | Then the apparent inhibition constant could be calculated from Equations.

Substrate in the data set “purified protein”: O=P(O)(O)OP(=O)(O)O
The experiment in a line: purified protein. The conditions noted are these: Mg2+ active site cavity formed by conserved polar residues, with Mg2+ ions.

For the molecule `CCCCCCCCCCCCOS(=O)(=O)O` [Sodium dodecyl sulfate], the Ki in data set [1] amounted to 3.4 mM. This counts as millimolar.

B1: Inorganic pyrophosphatase (T-PPase) (Thermus thermophilus HB27) (protein)
chain: MANLKSLPVGDKAPEVVHMVIEVPRGSGNKYEYDPDLGAIKLDRVLPGAQFYPGDYGFIPSTLAEDGDPLDGLVLSTYPLLPGVVVEVRVVGLLLMEDEKGGDAKVIGVVAEDQRLDHIQDIGDVPEGVKQEIQHFFETYKALEAKKGKWVKVTGWRDRKAALEEVRACIARYKG
As to B1, in the data set “purified protein”, the Km came out at 420 ± 40 µM.

The Ki is the equilibrium dissociation constant of an inhibitor or competing ligand from its target. In general, Km refers to the substrate concentration at which the rate is half of its maximum.
